Results: patent publication US9233167B2, “Oligomer-opioid agonist conjugates” (NEKTAR THERAPEUTICS, priority 2007, dated 2016)
Where two headings read alike, the source gives them in different places.

Key:
[1] = molecular target: recombinant human kappa opioid receptor (Homo sapiens (Human), UniProt P41145); format: binding
Experimental: (§1) Using conventional receptor binding assay techniques, several molecules were assayed to determine binding activity at kappa, mu and delta opioid subtypes of opioid receptors.
(§2) Cells were plated in 24 well plates at a density of 0.2-0.3*10^6 cells/well and washed with assay buffer containing 50 mM Tris.HCl and 5 mM MgCl2 (pH 7.4). Competition binding assays were conducted in whole cells incubated with increasing concentrations of test compounds in the presence of appropriate concentration of radioligand. 0.5 nM ^3H Naloxone, 0.5 nM ^3H Diprenorphine and 0.5 nM ^3H DPDPE were used as the competing radioligands for mu, kappa and delta receptors respectively. Incubations were carried out for two hours at room temperature using triplicate wells at each concentration. At the end of the incubation, cells were washed with 50 mM Tris HCl (pH 8.0), solubilized with NaOH and bound radioactivity was measured using a scintillation counter.
(§3) Specific binding is determined by subtraction of the cpm bound in the presence of 50-100× excess of cold ligand. Binding data assays were analyzed using GraphPad Prism 4.0 and IC50 is generated by non-linear regression from dose-response curves.

[2] = molecular target: T1, recombinant human mu opioid receptor (Homo sapiens (Human), UniProt P35372); format: binding
Experimental: as §1, §2, §3

[3] = molecular target: T2, recombinant human delta opioid receptor (Homo sapiens (Human), UniProt P41143); conditions: Ki relative to nalbuphine
Experimental: as §1, §2, §3

[4] = molecular target: T2, recombinant human delta opioid receptor; conditions: GTP-γS binding, up to 10 μM
Experimental: The reaction is initiated by 0.3 nM [^35S]GTPγS for an additional 30 minutes incubation period.

[5] = rats, 25 mg/kg intravenously, one hour after injection
CD-1 male mice = experiment: Phenylquinone writhing analgesic assay; format: in vivo, mouse; conditions: pretreatment 30 min before PQ
Experimental: Mice were treated according to standard protocols. Mice were given a single “pretreatment” dose of a compound lacking covalent attachment of a water-soluble, non-peptidic oligomer (i.e., non-PEG oligomer-modified parent molecule), a corresponding version comprising the compound covalently attached to a water-soluble, non-peptidic oligomer (i.e., the conjugate), or control solution (IV, SC, IP or orally) thirty minutes prior to the administration of the phenylquinone (PQ) solution. Each animal was given an IP injection of an irritant (phenylquinone, PQ) that induces “writhing” which may include: contractions of the abdomen, twisting and turning of the trunk, arching of the back, and the extension of the hindlimbs. Each animal was given an IP injection of PQ (1 mg/kg PQ, 0.1 mL/10 g bodyweight). After the injection, the animals were returned to their observation enclosure and their behavior was observed. Contractions were counted between 35 and 45 minutes after the “pretreatment”. The animals were used once. Each tested article was dosed at a range between 0.1 and 100 mg/kg (n=5-10 animals/dose).

[6] = molecular target: T1, recombinant human mu opioid receptor; format: binding; remark: listed apart in the source
Experimental: Radioligand displacement was measured using scintillation proximity assays (SPA).
Briefly, serial dilutions of the test compounds were placed in a 96-well plate to which were added SPA beads, membrane and radioligand. The assay conditions for each opioid receptor subtype are described in Table 10 below. The plates were incubated for 8 hours-overnight at room temperature, spun at 1000 rpm to pellet the SPA beads, and radioactivity was measured using the TopCount® microplate Scintillation counter. Specific binding at each concentration of test compound was calculated by subtracting the non-specific binding measured in the presence of excess cold ligand. IC50 values were obtained by non-linear regression of specific binding versus concentration curves and Ki values were calculated using Kd values that were experimentally pre-determined for each lot of membrane preparations.

[7] = molecular target: cloned human mu opioid receptor (Homo sapiens (Human), UniProt P35372); experiment: cell-based
Experimental: The efficacy of the various PEG-opioid conjugates was measured by their ability to inhibit cAMP formation following receptor activation. Studies were conducted in CHO cells heterologously expressing the cloned human mu, kappa or delta opioid receptors. cAMP was measured using a cAMP HiRange homogenous time-resolved fluorescence assay (HTRF Assay), that is based on a competitive immunoassay principle (Cisbio, Cat.#62AM6PEC).
Briefly, suspensions of cells expressing either the mu, kappa or delta opioid receptors were prepared in buffer containing 0.5 mM isobutyl-methyl xanthine (IBMX). […] EC50 values were calculated for each compound from a sigmoidal dose-response plot of concentrations versus maximum response. To determine if the compounds behaved as full or partial agonists in the system, the maximal response at the highest tested concentrations of compounds were compared to that produced by a known full agonist.

[8] = Intravenous pharmacokinetics in Sprague-Dawley rats; conditions: hydroxycodone series, IV 1 mg/kg, rats, Mean ± SD

T2 sequence (P41143 whole entry, looked up): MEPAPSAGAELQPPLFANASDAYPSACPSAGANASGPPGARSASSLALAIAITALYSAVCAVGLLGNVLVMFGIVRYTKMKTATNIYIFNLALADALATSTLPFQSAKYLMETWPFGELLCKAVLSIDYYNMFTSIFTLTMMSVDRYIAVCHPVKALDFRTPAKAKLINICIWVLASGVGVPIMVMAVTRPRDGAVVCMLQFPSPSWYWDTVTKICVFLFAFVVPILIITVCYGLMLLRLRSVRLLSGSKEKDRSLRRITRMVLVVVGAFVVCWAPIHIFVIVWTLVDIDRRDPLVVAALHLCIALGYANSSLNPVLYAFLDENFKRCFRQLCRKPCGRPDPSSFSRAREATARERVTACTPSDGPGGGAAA

COCCOCCOCCO[C@H]1CC[C@@]2(O)[C@H]3Cc4ccc(O)c5c4[C@@]2(CCN3CC2CCC2)[C@H]1O5 [6-O-mPEG3-Nalbuphine, 6-O-mPEG3-nalbuphine]
Fold vs Nalbuphine at KAPPA [1]: 8.40
Fold vs Nalbuphine At MU [2]: 1.92
Fold vs Nalbuphine At DELTA [3]: 0.51
effect at the delta opioid receptor [4]: no effect
brain:plasma ratio [5]: 0.23

COCCO[C@H]1CC[C@@]2(O)[C@H]3Cc4ccc(OC)c5c4[C@@]2(CCN3C)[C@H]1O5 [α-6-mPEG1-O-Hydroxycodone, α-6-mPEG1-O-hydroxycodone]
ED50 (mPEGn-O-HydroxyCodone series) (CD-1 male mice): 6.064 mg/kg
Ki ([6]; SPA, CHO-K1 membranes, [3H]DAMGO 6 nM): 654 nM
EC50 ([7]; inhibition of cAMP formation, 3 μM forskolin, CHO cells): 3840 nM
MU OPIOID RECEPTOR % max effect ([7]; inhibition of cAMP formation, maximal response vs known full agonist): 102%

COCCOCCOCCOCCO[C@H]1CC[C@@]2(O)[C@H]3Cc4ccc(OC)c5c4[C@@]2(CCN3C)[C@H]1O5 [α-6-mPEG4-O-Hydroxycodone, α-6-mPEG4-O-hydroxycodone]
ED50 (mPEGn-O-HydroxyCodone series) (CD-1 male mice): 17.31 mg/kg
Ki [6]: 893 nM
EC50 [7]: 3720 nM
MU OPIOID RECEPTOR % max effect [7]: 109%
AUCinf [8]: 11600 ± 827 ng·min/mL
CL [8]: 86.5 ± 6.36 mL/min/kg
Cmax [8]: 537 ± 31.0 ng/mL
MRTlast [8]: 35.6 ± 2.88 min
T1/2(z) [8]: 43.6 ± 3.27 min
Vss [8]: 3.34 ± 0.113 L/kg
